Source: paper PMC11091072, “Targeting bacterial nickel transport with aspergillomarasmine A suppresses virulence-associated Ni-dependent enzymes” (Nature Communications, 2024)
Several values for one entry are separate records, joined by “and”; a condition that tells them apart may be missing. Equal values may be shown once. Read-outs that look alike come from different tables or passages of the source.

Assays:
[1] = system: [NiFe]-hydrogenase (Hyd-3); assay: Whole-cell [NiFe] hydrogenase assay (benzyl viologen reduction); type: cell-based, Klebsiella pneumoniae
Excerpt: We reasoned that disruption of Ni^2+ uptake and homeostasis should also perturb the activity of other Ni-dependent enzymes. To examine this possibility, we tested the effects of free AMA and Zn-AMA on Ni-dependent hydrogen metabolism in bacteria. […] K. pneumoniae produces a single [NiFe]-hydrogenase (Hyd-3) as part of the H2-evolving formate hydrogenlyase (FHL) complex and is encoded by the hyc operon (Fig S8)[21]. […] To measure [NiFe]-hydrogenase-catalyzed H2 […], benzyl viologen was used as an artificial electron acceptor, as previously described. Although Hyd-3 is involved in the evolution of H2, previous work in E. coli has shown that it is responsible for 90% of the hydrogen-dependent benzyl viologen reduction in crude extracts and whole-cell assays[41]–[44].
The whole-cell hydrogenase activity in K. pneumoniae was based on a modified method described by Lacasse et al.[41] […] The cell suspension was diluted 1/100 in LB supplemented with 0.8% glucose, 10 mM MgCl2, and 10 mM potassium phosphate, pH 7.2. […] Following an 18-hour incubation, whole-cell [NiFe] hydrogenase activity was monitored by adding benzyl viologen (1 mg/mL) to each well, followed by continuous monitoring of the change in absorbance at 630 nm using a BioTek Synergy H1 microplate reader in an anaerobic glove box.

K. pneumoniae [2] = type: cell-based, Klebsiella pneumoniae
K. pneumoniae [3] = type: cell-based, Klebsiella pneumoniae; settings: 200 μM, 24 h exposure
urease = biological target: T1, urease (Klebsiella pneumoniae subsp. pneumoniae, UniProt A6TE40+A6TE41+A6TE42); assay: Urease activity in cell-free extracts (NH3 release, indophenol-hypochlorite); type: biochemical
T1 construct: endogenous in cells; host or cells: Klebsiella pneumoniae (ATCC 33495), sonicated and cleared lysate
T1 sequence (A6TE41 whole entry): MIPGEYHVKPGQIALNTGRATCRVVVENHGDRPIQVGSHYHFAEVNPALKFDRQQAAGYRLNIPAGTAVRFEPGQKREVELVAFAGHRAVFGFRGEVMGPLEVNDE
T1 sequence (A6TE40 whole entry): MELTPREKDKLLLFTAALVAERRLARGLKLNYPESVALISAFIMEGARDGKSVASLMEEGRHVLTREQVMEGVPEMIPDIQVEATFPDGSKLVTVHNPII
T1 sequence (A6TE42 whole entry): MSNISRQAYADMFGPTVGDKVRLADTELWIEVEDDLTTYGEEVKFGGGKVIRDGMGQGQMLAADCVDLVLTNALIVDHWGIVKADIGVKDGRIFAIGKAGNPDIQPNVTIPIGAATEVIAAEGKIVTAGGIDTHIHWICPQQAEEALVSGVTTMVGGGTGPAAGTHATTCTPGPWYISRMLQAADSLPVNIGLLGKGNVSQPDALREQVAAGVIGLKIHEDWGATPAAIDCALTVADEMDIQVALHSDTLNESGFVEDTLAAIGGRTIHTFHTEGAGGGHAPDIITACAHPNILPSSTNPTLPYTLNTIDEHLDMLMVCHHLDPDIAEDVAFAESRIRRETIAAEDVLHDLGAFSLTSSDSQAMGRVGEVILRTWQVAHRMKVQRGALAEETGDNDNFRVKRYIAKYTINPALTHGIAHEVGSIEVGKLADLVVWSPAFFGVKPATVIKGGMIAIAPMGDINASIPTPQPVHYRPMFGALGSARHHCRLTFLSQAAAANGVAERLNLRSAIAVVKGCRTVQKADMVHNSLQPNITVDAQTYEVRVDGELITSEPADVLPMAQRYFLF
Experimental: The cells were subsequently lysed by sonication, and cell debris was removed with centrifugation (20,000 × g, 10 min). […] Liberated NH3 was quantified using the indophenol-hypocholorite reaction as previously described. The total amount of protein was quantified by Bradford assay using bovine serum albumin as standard. Each assay was performed in duplicate wells.
FIG S7 Evaluation of Zn-AMA as a direct inhibitor of urease. A) Checkerboard analysis of Zn-AMA and AHA on urease activity of K. […]
Dose- […]
response curves of fluorofamide, Zn-AMA, and AMA inhibiting the urease-catalyzed release of NH3 quantified with indophenol hypochlorite. The rates of NH3 production were measured over 20 min and were normalized to total protein concentration. Experiments were performed in duplicate. Individual replicates are shown as colored circles.

[4] = system: cellular Ni and Zn content of K. pneumoniae; assay: Cellular metal analysis by ICP-MS (60Ni, 66Zn); type: cell-based, Klebsiella pneumoniae
Experimental: The cellular Zn^2+ and Ni^2+ content of K. pneumoniae was carried out according to the method described by Maunders et al.[66] with some modifications. An overnight culture of K. pneumoniae was diluted 1/200 in LB medium (5 mL) and was either untreated or treated with 0.2 mM AMA or Zn-AMA. The cells were grown for 16 h at 37 °C, harvested by centrifugation, and washed twice with PBS containing 5 mM EDTA and twice with ultra-pure water. The cell pellet was subsequently digested in 0.25 mL 65% HNO3 at 80 °C for 30 minutes in borosilicate glass tubes using a water bath. The samples were diluted to 2% HNO3 and filtered through a 0.45 μm syringe filter. ^60Ni and ^66Zn were quantified using a Thermo iCAP Q ICP-MS.

[5] = system: K. pneumoniae urease activity (whole cell); assay: microbe, parasite or virus in culture; type: cell-based, Klebsiella pneumoniae ATCC 33495; settings: artificial urine; for K. pneumoniae urease-dependent pH change (pH): 37 °C
[6] = system: S. aureus urease activity (whole cell); type: cell-based, Staphylococcus aureus; settings: artificial urine, 24 h; for Staphylococcus aureus urease-dependent pH change (pH): 37 °C
HEK293 cells = assay: HEK293 cytotoxicity assay (Cell Titer Glo 2.0)
S. aureus = type: cell-based, Staphylococcus aureus; settings: 200 μM, 24 h
[7] = K. pneumoniae treated with 200 μM

## N[C@@H](CN[C@@H](CN[C@@H](CC(=O)O)C(=O)O)C(=O)O)C(=O)O.[Zn+2] [Zn-AMA]
[1]; 1.5625 μM
  Benzyl viologen hydrogenase assay (activity): 9.43 and 9.72
[1]; 3.125 μM
  Benzyl viologen hydrogenase assay (activity): 9.23 and 9.47
[1]; 6.25 μM
  Benzyl viologen hydrogenase assay (activity): 8.98 and 9.82
[1]; 12.5 μM
  Benzyl viologen hydrogenase assay (activity): 9.03 and 8.64
[1]; 25 μM
  Benzyl viologen hydrogenase assay (activity): 7.51 and 6.87
[1]; 50 μM
  Benzyl viologen hydrogenase assay (activity): 5.01 and 4.71
[1]; 100 μM
  Benzyl viologen hydrogenase assay (activity): 2.11
[1]; 200 μM
  Benzyl viologen hydrogenase assay (activity): 0.69 and 0.39
[1]; read-out: EC50, Hyd-3 [NiFe]-hydrogenase inhibition, LB-glucose, anaerobic, whole cell, benzyl viologen
  EC50: 50.8 ± 4.4 µM
K. pneumoniae [2]
  Growth curve (culture density): 0.101 and 0.102 and 0.103 and 0.104 and 0.105 and 0.107 and 0.106 and 0.108
K. pneumoniae [2]; 15.15 h, 50 μM
  Growth curve (culture density): 0.107 and 0.104
K. pneumoniae [2]; 16.15 h, 50 μM
  Growth curve (culture density): 0.107 and 0.103
K. pneumoniae [2]; 17.15 h, 50 μM
  Growth curve (culture density): 0.107 and 0.102
K. pneumoniae [2]; Chelex-treated nitrogen-limited medium
  growth with urea as sole nitrogen source: did not
K. pneumoniae [2]; medium supplemented with 0.25 μM NiCl
  growth with urea as sole nitrogen source: inhibited the growth of K. pneumoniae
K. pneumoniae [3]
  bacterial viability (spot dilutions): do not affect bacterial viability
urease; Zn-AMA 0.007813 mM
  Specific activity (cell-free indophenol urease assay): 45.30 nmol/min/mg and 43.25 nmol/min/mg
urease; Zn-AMA 0.015625 mM
  Specific activity (cell-free indophenol urease assay): 43.59 nmol/min/mg and 42.05 nmol/min/mg
urease; Zn-AMA 0.03125 mM
  Specific activity (cell-free indophenol urease assay): 42.91 nmol/min/mg and 40.51 nmol/min/mg
urease; Zn-AMA 0.0625 mM
  Specific activity (cell-free indophenol urease assay): 42.56 nmol/min/mg and 39.66 nmol/min/mg
urease; Zn-AMA 0.125 mM
  Specific activity (cell-free indophenol urease assay): 42.39 nmol/min/mg and 39.32 nmol/min/mg
urease; Zn-AMA 0.25 mM
  Specific activity (cell-free indophenol urease assay): 39.32 nmol/min/mg and 37.78 nmol/min/mg
urease; Zn-AMA 0.5 mM
  Specific activity (cell-free indophenol urease assay): 36.07 nmol/min/mg and 34.19 nmol/min/mg
urease; Zn-AMA 1 mM
  Specific activity (cell-free indophenol urease assay): 31.28 nmol/min/mg and 28.03 nmol/min/mg
urease; cell-free extract
  direct inhibition of urease: excluded the direct inhibition of urease
[4]; 200 μM, ICP-MS
  effect on intracellular Ni^2+ levels: reduced intracellular Ni^2+ levels
  effect on intracellular Zn^2+ levels: without affecting Zn^2+ levels
[4]; [7]
  ICP-MS cellular Ni: 2.15 µM and 2.37 µM
  ICP-MS cellular Zn: 0.81 µM and 0.97 µM
[5]; 0.19 μM, 24 h
  K. pneumoniae urease-dependent pH change (pH): 8.14 and 8.10
[5]; 0.39 μM, 24 h
  K. pneumoniae urease-dependent pH change (pH): 8.08 and 8.00
[5]; 0.78 μM, 24 h
  K. pneumoniae urease-dependent pH change (pH): 7.84 and 7.81
[5]; 1.56 μM, 24 h
  K. pneumoniae urease-dependent pH change (pH): 7.60 and 7.55
[5]; 3.12 μM, 24 h
  K. pneumoniae urease-dependent pH change (pH): 7.41 and 7.27
[5]; 6.25 μM, 24 h
  K. pneumoniae urease-dependent pH change (pH): 7.11
[5]; 12.5 μM, 24 h
  K. pneumoniae urease-dependent pH change (pH): 6.87 and 6.85
[5]; 25 μM, 24 h
  K. pneumoniae urease-dependent pH change (pH): 6.76 and 6.71
[5]; 50 μM, 24 h
  K. pneumoniae urease-dependent pH change (pH): 6.66 and 6.60
[5]; 100 μM, 24 h
  K. pneumoniae urease-dependent pH change (pH): 6.65 and 6.54
[5]; 200 μM, 24 h
  K. pneumoniae urease-dependent pH change (pH): 6.80 and 6.56
[5]; K. pneumoniae, 24 h
  concentration that significantly suppressed urease activity: 50 µM
[5]; Klebsiella pneumoniae, K. pneumoniae, read-out: EC50, half-maximal effective concentration required to suppress urease-dependent pH change
  EC50: 2.5 ± 0.4 µM
[6]; 0.19 μM
  Staphylococcus aureus urease-dependent pH change (pH): 7.24 and 7.25
[6]; 0.39 μM
  Staphylococcus aureus urease-dependent pH change (pH): 7.28 and 7.12
[6]; 0.78 μM
  Staphylococcus aureus urease-dependent pH change (pH): 6.95 and 7.00
[6]; 1.56 μM
  Staphylococcus aureus urease-dependent pH change (pH): 6.76 and 6.81
[6]; 3.12 μM
  Staphylococcus aureus urease-dependent pH change (pH): 6.56 and 6.59
[6]; 6.25 μM
  Staphylococcus aureus urease-dependent pH change (pH): 6.45 and 6.49
[6]; 12.5 μM
  Staphylococcus aureus urease-dependent pH change (pH): 6.41 and 6.45
[6]; 25 μM
  Staphylococcus aureus urease-dependent pH change (pH): 6.38 and 6.40
[6]; 50 μM
  Staphylococcus aureus urease-dependent pH change (pH): 6.39 and 6.40
[6]; 100 μM
  Staphylococcus aureus urease-dependent pH change (pH): 6.37 and 6.40
[6]; 200 μM
  Staphylococcus aureus urease-dependent pH change (pH): 6.41 and 6.39
[6]; S. aureus
  effect on urease activity: inhibited urease activity similarly
HEK293 cells; 48 h, up to 512 μg/mL (~1.4 mM)
  cytotoxicity toward HEK293: no significant cytotoxicity
HEK293 cells; Homo sapiens, HEK293, 48 h, read-out: IC50 (HEK293 viability)
  IC50: > 512 µg/mL
HEK293 cells; Zn-AMA 0.5 μg/mL
  HEK 293T cytotoxicity assay raw signal: 787289 and 688554 and 688484
HEK293 cells; Zn-AMA 1 μg/mL
  HEK 293T cytotoxicity assay raw signal: 778862 and 676746 and 680280
HEK293 cells; Zn-AMA 2 μg/mL
  HEK 293T cytotoxicity assay raw signal: 730695 and 661495 and 777158
HEK293 cells; Zn-AMA 4 μg/mL
  HEK 293T cytotoxicity assay raw signal: 783723 and 676080 and 794996
HEK293 cells; Zn-AMA 8 μg/mL
  HEK 293T cytotoxicity assay raw signal: 742661 and 700936 and 674120
HEK293 cells; Zn-AMA 16 μg/mL
  HEK 293T cytotoxicity assay raw signal: 815769 and 690170 and 672316
HEK293 cells; Zn-AMA 32 μg/mL
  HEK 293T cytotoxicity assay raw signal: 682089 and 773769 and 699603
HEK293 cells; Zn-AMA 64 μg/mL
  HEK 293T cytotoxicity assay raw signal: 773018 and 718789 and 808685
HEK293 cells; Zn-AMA 128 μg/mL
  HEK 293T cytotoxicity assay raw signal: 636555 and 716494 and 658016
HEK293 cells; Zn-AMA 256 μg/mL
  HEK 293T cytotoxicity assay raw signal: 744022 and 626132 and 622056
HEK293 cells; Zn-AMA 512 μg/mL
  HEK 293T cytotoxicity assay raw signal: 618617 and 604431 and 563165
S. aureus
  bacterial viability (spot dilutions): not lethal to bacteria
